Measurements reported in patent publication US10301292B2, “Bicyclic compound” (Takeda Pharmaceutical Company Limited, priority 2014, dated 2019).

How the values were obtained:
human ACC1 = molecular target: T1, human ACC1 (Homo sapiens, UniProt Q13085); assay: Measurement of ACC1 inhibitory activity (Malonyl-CoA production, RapidFire-mass spectrometry); format: biochemical; conditions: 10 μM of the test compound, recombinant human ACC1; for inhibition at 10 µM: read-out: ACC1 inhibitory rate (%) at 10 μM
T1 construct: His tag (from vector pFAST-BacHTc; protein captured on Ni-NTA) (N); made in house; host or cells: SF-9 insect cells, recombinant baculovirus BAC-ACC1
Method: (1) Cloning of Human ACC1 Gene and Preparation of Recombinant Baculovirus
Human ACC1 gene was cloned by PCR using a human liver cDNA library (Clontech) as a template and Primer 1 and Primer 2 shown below. Primer 1 and Primer 2 were prepared by adding SalI, NotI restriction enzyme recognition sequences based on the information of the base sequence of human ACC1 gene (Genbank Accession U19822).
PCR was performed using Pyrobest DNA polymerase (TAKARA BIO INC.). The obtained PCR product was cloned to pT7 Blue vector (Novagen) and after confirmation of the base sequence, digested with restriction enzymes SalI and XbaI. The obtained DNA fragment was inserted into pFAST-BacHTc (Invitrogen) digested with restriction enzymes SalI and XbaI to give expression plasmid ACC1/pFAST-BacHTc.
Using the expression plasmid ACC1/pFAST-BacHTc and BAC-TO-BAC Baculovirus Expression System (Invitrogen), virus stock BAC-ACC1 of recombinant Baculovirus was prepared.
(2) Preparation of ACC1 Protein
SF-9 cells (Invitrogen) were inoculated to a medium (10 L) for insect cells (Sf-900IISFM medium (Invitrogen) containing 5% fetal bovine serum (Trace), 50 mg/L Gentamicin (Wako Pure Chemical Industries, Ltd.), 0.1% Pluronic F-68 (Invitrogen)) at 1.0×10^6 cells/mL, and cultured with shaking in Wave Bioreactor (GE Healthcare) at 27° C., 20 rpm, rocking angle 10°, oxygen concentration 30%.
On day 2 of the culture, recombinant Baculovirus BAC-ACC1 was added, and the cells were cultured for 3 days. The culture medium was centrifuged at 4000×g for 10 min to give virus-infected cells. The cells were washed with phosphate buffered saline (Invitrogen) and centrifuged under the same conditions. The obtained cells were cryopreserved at −80° C.
The cryopreserved cells were thawed in ice and suspended in 800 mL of 25 mM HEPES buffer (pH 7.5) containing 10% Glycerol, 0.3 M NaCl, 1 mM EDTA, 25 mM Sodium β-Glycerophosphate and 1 mM Sodium Orthovanadate, and supplemented with Complete Protease Inhibitor (Roche). The obtained suspension was homogenized two times in a polytron homogenizer (Kinematica) at 20,000 rpm for 20 sec. The obtained cell disruption solution was clarified by centrifugation at 186,000×g for 60 min and the supernatant was passed through Ni-NTA Superflow Cartridges (5 mL) (QUIAGEN). Furthermore, it was washed with 25 mM HEPES buffer (pH 7.5) containing 20 mM Imidazole, 0.3 M NaCl, and eluted with 25 mM HEPES buffer (pH 7.5) containing 250 mM Imidazol, 0.3 M NaCl. The eluate was concentrated by Amicon Ultra-15 (Nihon Millipore K.K.) having a fraction molecular weight of 50K. The obtained concentrate was subjected to gel filtration with 50 mM HEPES buffer (pH 7.5) containing 10 mM MgCl2, 2 mM dithiothreitol, 10 mM tripotassium citrate, 0.3 M NaCl by using HiLoad 26/60 Superdex200 prep grade gel filtration column (GE Healthcare) to give ACC1. The obtained ACC1 was cryopreserved at −80° C.
(3) Measurement of ACC1 Inhibitory Activity
ACC1 obtained in the above-mentioned (2) was diluted with an enzyme reaction buffer (50 mM HEPES (pH 7.5), 10 mM MgCl2, 10 mM Tripottasium Citrate, 2 mM Dithiothreitol, 0.001% Fatty acid free BSA) to a concentration of 0.2 μg/ml, and the mixture was added to each well of a 384 well assay plate by 10 μl. A test compound dissolved in dimethyl sulfoxide (DMSO) was diluted with an enzyme reaction buffer and the resulting solution (5 μl) was added to each well. The mixture was incubated at room temperature for 60 min. Then, a substrate solution (50 mM KHCO3, 200 μM ATP, 200 μM Acetyl-CoA, 5 μl) was added to each well, and the mixture was reacted at room temperature for 30 min. The reaction was quenched by adding a reaction quenching liquid (1.3% formic acid, 0.2 μM Malonyl-^13C3-CoA) by 60 μL each to the obtained reaction mixtures (test compound addition group).
In addition, a reaction was performed in the same manner as above and without adding the test compound (test compound non-addition group). […]

HCT116 cells = assay: Growth inhibitory activity on HCT116 cell (CellTiter-Glo); format: cell-based; conditions: table head: 10 μM (text b2498: 1 μM), 3 days incubation; for inhibition at 10 µM: Homo sapiens, HCT-116, 72 h, read-out: HCT116 cell proliferation inhibitory rate (%) at 10 μM
Method: The growth inhibitory activity of the compound on HCT116 cell was evaluated by the following method.
HCT116 cells were seeded in a 384 well blackplate at 900 cells/30 μL/well, and maintained in an RPMI medium (Wako)) containing an assay medium (2% fetal bovine serum, 50 Unit/mL penicillin, 50 μg/mL streptomycin (Invitrogen). The next day, a test compound dissolved in dimethyl sulfoxide (DMSO) was diluted with the assay medium, and the obtained compound solution was added by 10 μL to each well of a plate containing HCT116 cells and incubated at 37° C., 5% CO2 (test compound addition group).
A similar reaction was performed without adding a test compound (test compound non-addition group).
Furthermore, a similar reaction was performed under the conditions without adding HCT116 cell and a test compound (control group).
After 3 days, 20 μL of a CellTiter-Glo reagent (Promega KK) was added to the well, and the mixture was stirred for 10 min. Thereafter, the luminescence value of each well was measured by the EnVision™ multilabel counter (Perkin Elmer Inc.).
The HCT116 cell proliferation inhibitory rate (%) of the test compound was determined by the following calculation formula. (1−(luminescence of test compound addition group−luminescence of control group)÷(luminescence of test compound nonaddition group−luminescence of control group))×100

SMILES | inhibition at 10 µM (human ACC1) [%] | inhibition at 10 µM (HCT116 cells) [%] | ACC1 inhibitory rate (%) at 10 μM (human ACC1; 10 µM) [%] | HCT116 cell proliferation inhibitory rate (%) at 10 μM (HCT116 cells) [%]
CC(=O)NC(C)c1ccc2cc(-c3ccc(Oc4cccc(OC[C@@H]5CC5(F)F)c4)nc3)oc2c1 (stereo partly drawn) [Example 68, N-(1-(2-(6-(3-(((1S)-2,2-difluorocyclopropyl)methoxy)phenoxy)pyridin-3-yl)-1-benzofuran-6-yl)ethyl)acetamide] | 100 | 39 | – | –
CC(=O)NC(C)c1ccc2oc(-c3ccc(Oc4cccc(OCC5CC5)c4)nc3)nc2c1 (centres unmarked) [Example 71, N-(1-(2-(6-(3-(cyclopropylmethoxy)phenoxy)pyridin-3-yl)-1,3-benzoxazol-5-yl)ethyl)acetamide] | 95 | 41 | – | –
CC(=O)NC(C)c1ccc2sc(-c3ccc(Oc4cccc(OCC5CC5)c4)cc3)cc2c1 (centres unmarked) [Example 73, N-(1-(2-(4-(3-(cyclopropylmethoxy)phenoxy)phenyl)-1-benzothiophen-5-yl)ethyl)acetamide] | 90 | 28 | – | –
CC(=O)NC(C)c1ccc2sc(-c3ccc(Oc4cccc(OCC5CC5)c4)nc3)nc2c1 (centres unmarked) [Example 75, N-(1-(2-(6-(3-(cyclopropylmethoxy)phenoxy)pyridin-3-yl)-1,3-benzothiazol-5-yl)ethyl)acetamide] | 94 | 40 | – | –
CC(=O)NC(C)c1ccc2nc(-c3ccc(Oc4cccc(OC[C@@H]5CC5(F)F)c4)cn3)oc2c1 (stereo partly drawn) [Example 76, N-(1-(2-(5-(3-(((1S)-2,2-difluorocyclopropyl)methoxy)phenoxy)pyridin-2-yl)-1,3-benzoxazol-6-yl)ethyl)acetamide] | 99 | 45 | – | –
CC(=O)NC(C)c1ccc2nc(-c3ccc(Oc4cccc(OC[C@@H]5CC5(F)F)c4)nc3)oc2c1 (stereo partly drawn) [Example 80, N-(1-(2-(6-(3-(((1S)-2,2-difluorocyclopropyl)methoxy)phenoxy)pyridin-3-yl)-1,3-benzoxazol-6-yl)ethyl)acetamide] | 100 | 33 | – | –
CC(=O)NC(C)c1ccc2nc(-c3ccc(Oc4cc(OCC5CC5)ccn4)cc3)oc2c1 (centres unmarked) [Example 82, N-(1-(2-(4-((4-(cyclopropylmethoxy)pyridin-2-yl)oxy)phenyl)-1,3-benzoxazol-6-yl)ethyl)acetamide] | 98 | 40 | – | –
CC(=O)NC(C)c1ccc2cc(-c3ccc(Oc4cccc(OCC5CC5)c4)cc3)nn2c1 (centres unmarked) [Example 86, N-(1-(2-(4-(3-(cyclopropylmethoxy)phenoxy)phenyl)pyrazolo[1,5-a]pyridin-6-yl)ethyl)acetamide] | 95 | 34 | – | –
CC(=O)NC(C)c1ccc2nc(-c3ccc(Oc4cccc(OCC5CC5)c4)cc3)oc2c1F (centres unmarked) [Example 90, N-(1-(2-(4-(3-(cyclopropylmethoxy)phenoxy)phenyl)-7-fluoro-1,3-benzoxazol-6-yl)ethyl)acetamide] | 101 | 22 | – | –
CC(=O)NC(C)C1CCc2nc(-c3ccc(Oc4cccc(OCC5CC5)c4)cc3)oc2C1 (centres unmarked) [Example 95, N-(1-(2-(4-(3-(cyclopropylmethoxy)phenoxy)phenyl)-4,5,6,7-tetrahydro-1,3-benzoxazol-6-yl)ethyl)acetamide] | 97 | 11 | – | –
CC(=O)NC(C)C1CCc2nc(-c3ccc(Oc4cccc(OCC5CC5)c4)cc3)oc2C1 (centres unmarked) [Example 95b, N-(1-(2-(4-(3-(cyclopropylmethoxy)phenoxy)phenyl)-4,5,6,7-tetrahydro-1,3-benzoxazol-6-yl)ethyl)acetamide] | – | – | 96 | 20
CC(=O)NC(C)c1ccc2nc(-c3ccc(Oc4cccc(OCC5CC5)c4)nn3)oc2c1 (centres unmarked) [Example 96, N-(1-(2-(6-(3-(cyclopropylmethoxy)phenoxy)pyridazin-3-yl)-1,3-benzoxazol-6-yl)ethyl)acetamide] | 100 | 23 | – | –
CC(=O)NC(C)c1ccc2nc(-c3cnc(Oc4cccc(OCC5CC5)c4)cc3C)oc2c1 (centres unmarked) [Example 97, N-(1-(2-(6-(3-(cyclopropylmethoxy)phenoxy)-4-methylpyridin-3-yl)-1,3-benzoxazol-6-yl)ethyl)acetamide] | 92 | 22 | – | –
C[C@H](NC(N)=O)c1ccc2nc(-c3ccc(Oc4cccc(OCC5CC5)c4)nc3)oc2c1 [Example 98b, 1-((1S)-1-(2-(6-(3-(cyclopropylmethoxy)phenoxy)pyridin-3-yl)-1,3-benzoxazol-6-yl)ethyl)urea] | 98 | 47 | – | –
COC(=O)NC(C)c1ccc2nc(-c3ccc(Oc4cccc(OCC5CC5)c4)nc3)oc2c1 (centres unmarked) [Example 99, methyl (1-(2-(6-(3-(cyclopropylmethoxy)phenoxy)pyridin-3-yl)-1,3-benzoxazol-6-yl)ethyl)carbamate] | 98 | 26 | – | –
CNC(=O)NC(C)c1ccc2nc(-c3ccc(Oc4cccc(OCC5CC5)c4)nc3)oc2c1 (centres unmarked) [Example 100, 1-(1-(2-(6-(3-(cyclopropylmethoxy)phenoxy)pyridin-3-yl)-1,3-benzoxazol-6-yl)ethyl)-3-methylurea] | 94 | 28 | – | –
CC(NC(=O)N(C)C)c1ccc2nc(-c3ccc(Oc4cccc(OCC5CC5)c4)nc3)oc2c1 (centres unmarked) [Example 101, 3-(1-(2-(6-(3-(cyclopropylmethoxy)phenoxy)pyridin-3-yl)-1,3-benzoxazol-6-yl)ethyl)-1,1-dimethylurea] | 96 | 30 | – | –
CCCn1cc(Oc2ccc(-c3nc4ccc(C(C)NC(C)=O)cc4o3)cn2)ccc1=O (centres unmarked) [Example 102, N-(1-(2-(6-((6-oxo-1-propyl-1,6-dihydropyridin-3-yl)oxy)pyridin-3-yl)-1,3-benzoxazol-6-yl)ethyl)acetamide] | 94 | 30 | – | –
CC(=O)NC(C)c1cc2cc(-c3cnc(Oc4cccc(OCC5CC5)c4)cn3)ccc2o1 (centres unmarked) [Example 103, N-(1-(5-(5-(3-(cyclopropylmethoxy)phenoxy)pyrazin-2-yl)-1-benzofuran-2-yl)ethyl)acetamide] | 100 | 29 | – | –
